Measured values published in patent publication US20210123061A1, “METHODS AND COMPOSITIONS FOR TREATING INFLAMMATORY DISEASE OR DISORDER” (THE BRIGHAM AND WOMEN'S HOSPITAL, INC., priority 2018, published 2021).

Tested on: STAT1-pSer727
Assay: Anti-STAT1-pSer727 immunoprecipitation with parallel reaction monitoring mass spectrometry
Format: cell-based, human
Conditions: versus IFN-γ (plus DMSO) alone
Description: FIGS. 3A-3F show RSK1 is activated through JAK signaling and its inhibition suppresses STAT1 phosphorylation at Ser727 in human primary macrophages in response to IFN-γ. (FIG. 3A) PBMC-derived macrophages were pre-treated with DMSO or 10 μM a pan-JAK inhibitor, pyridone-6, for two hours and then stimulated with IFN-γ for indicated time under serum starvation. Cell lysates were subjected to immunoprecipitation with normal IgG or anti-RSK1 followed by immunoblot analysis using the indicated antibodies. WCL, whole cell lysate. N=3 donors. […] (FIG. 3D) Densitometric based quantification (ImageJ Software) of STAT1-pSer727 in panel (FIG. 3C) plus three additional donors. […] (FIG. 3F) Quantification of PRM ions (MS/MS ions) of the indicated STAT1 peptide harboring a phosphorylation at Ser727 (and oxidized methionine, m), generated from the digest of panel […].
Anti-STAT1-pSer727 IPs—The STAT1 peptide with phosphorylation at Ser727 was detected on the Orbitrap Fusion Lumos. […]
Anti-STAT1-pSer727 IPs—The three most abundant fragment ions of the target peptide (LQTTDNLLPmsPEEFDEVSR (SEQ ID NO: 5)-m10-oxidation, s11-phosphorylation, 806.3575 m/z, z=3) as annotated by SEQUEST (PD2.1) were used for quantification: y12^2+, 759.79455 m/z; c12^+, 1424.64911 m/z; b8^+, 899.48327 m/z. AUC of each fragment was calculated using the Skyline software (https://skyline.gs.washington.edu). […]

Q: What does the source list for `CC(C)CCN1c2nc(Nc3cc(F)c(O)c(F)c3)ncc2N(C)C(=O)C1C` (centres unmarked) [BI-D1870]?
A: STAT1-pSer727 recovered post-immunoprecipitation: less; pSer727 site-specific signal, PRM of three EThcD fragment ions: decrease in signal
